Laboratory results from US12396961B2, “Compounds and compositions for intracellular delivery of agents” (ModernaTX, Inc., priority 2015, dated 2025).

Experiment: Particle size and polydispersity index (Zetasizer Nano ZS)
Assay type: physicochemical
Conditions: Table 1, marked *: lipid:DSPC:Chol:PEG-DMG 50:10:38.5:1.5
Description: Nanoparticle compositions may be characterized by a variety of methods. For example, microscopy (e.g., transmission electron microscopy or scanning electron microscopy) may be used to examine the morphology and size distribution of a nanoparticle composition. Dynamic light scattering or potentiometry (e.g., potentiometric titrations) may be used to measure zeta potentials. Dynamic light scattering may also be utilized to determine particle sizes. Instruments such as the Zetasizer Nano ZS (Malvern Instruments Ltd, Malvern, Worcestershire, UK) may also be used to measure multiple characteristics of a nanoparticle composition, such as particle size, polydispersity index, and zeta potential.
A Zetasizer Nano ZS (Malvern Instruments Ltd, Malvern, Worcestershire, UK) can be used to determine the particle size, the polydispersity index (PDI) and the zeta potential of the nanoparticle compositions in 1×PBS in determining particle size and 15 mM PBS in determining zeta potential.

Point of comparison: CCCCCCCCCN(CCCCCCCCC)CCN(CCCCCCCCC)CCN1CCNCC1 [Compound 36, N^1,N^1,N^2-Trinonyl-N^2-(2-(piperazin-1-yl)ethyl)ethane-1,2-diamine], PDI 0.110. Against it:
- CCCCCCCC/C=C\CCCCCCCCN(CCCCCCCC/C=C\CCCCCCCC)CCN(CCCCCCCC/C=C\CCCCCCCC)CCN1CCNCC1 [Compound 40, N^1,N^1,N^2-Tri((Z)-octadec-9-en-1-yl)-N^2-(2-(piperazin-1-yl)ethyl)ethane-1,2-diamine] — higher, 0.210
- CCCCC/C=C\C/C=C\CCCCCCCCN(CCCCCCCC/C=C\C/C=C\CCCCC)CCN(CCCCCCCC/C=C\C/C=C\CCCCC)CCN1CCN(CCN(CCCCCCCCCCCC)CCCCCCCCCCCC)CC1 [Compound 34, N^1-(2-(4-(2-(Didodecylamino)ethyl)piperazin-1-yl)ethyl)-N^1,N^2,N^2-tri((9Z,12Z)-octadeca-9,12-dien-1-yl)ethane-1,2-diamine] — lower, 0.077

For CCCCC/C=C\C/C=C\CCCCCCCCN(CCCCCCCC/C=C\C/C=C\CCCCC)CCN(CCCCCCCC/C=C\C/C=C\CCCCC)CCN1CCNCC1 [Compound 41, N^1,N^1,N^2-Tri((9Z,12Z)-octadeca-9,12-dien-1-yl)-N^2-(2-(piperazin-1-yl)ethyl)ethane-1,2-diamine], the “Size (nm)” value was 69.0 nm.

Same assay, conditions: Table 1; DOPE 40:20:38.5:1.5, Luc mRNA

Point of comparison: CCCCCCCC/C=C\CCCCCCCCN(CCCCCCCC/C=C\CCCCCCCC)CCN1CCN(CCN(CCCCCCCCCCCC)CCN(CCCCCCCCCCCC)CCCCCCCCCCCC)CC1 [Compound 28, N^1-(2-(4-(2-(Di((Z)-octadec-9-en-1-yl)amino)ethyl)piperazin-1-yl)ethyl)-N^1,N^2,N^2-tridodecylethane-1,2-diamine], PDI 0.099. Against it:
- CCCCCCCCCCCCN(CCCCCCCCCCCC)CCN1CCN(CCN(CCCCCCCCC)CCN(CCCCCCCCC)CCCCCCCCC)CC1 [Compound 19, N^1-(2-(4-(2-(Didodecylamino)ethyl)piperazin-1-yl)ethyl)-N^1,N^2,N^2-trinonylethane-1,2-diamine] — higher, 0.100
- CCCCCCCCCCCCCCN(CCCCCCCCCCCCCC)CCN(CCCCCCCCCCCCCC)CCN1CCN(CCN(CCCCCCCCCCCC)CCCCCC(=O)OCCCCC)CC1 [Compound 13, Pentyl 6-((2-(4-(2-((2-(ditetradecylamino)ethyl)(tetradecyl)amino)ethyl)piperazin-1-yl)ethyl)(dodecyl)amino)hexanoate] — lower, 0.080
- CCCCCCCCCCCCCCN(CCCCCCCCCCCCCC)CCN(CCCCCCCCCCCCCC)CCN1CCN(CCN(CCCCCCCCCCCC)CCCCCCCCCCCC)CC1 [Compound 31, N^1-(2-(4-(2-(Didodecylamino)ethyl)piperazin-1-yl)ethyl)-N^1,N^2,N^2 tritetradecylethane-1,2-diamine] — higher, 0.130
- CCCCCCCCCCCCCCN(CCCCCCCCCCCCCC)CCN(CCCCCCCCCCCCCC)CCN1CCN(CCN(CCCCCCCCCCCCCC)CCCCCCCCCCCCCC)CC1 [Compound 32, N^1-(2-(4-(2-(Ditetradecylamino)ethyl)piperazin-1-yl)ethyl)-N^1,N^2,N^2 tritetradecylethane-1,2-diamine] — higher, 0.160
- CCCCCCCCCN(CCCCCCCCC)CCN(CCCCCCCCC)CCN1CCN(CCN(CCCCCCCCC)CCCCCCCCC)CC1 [Compound 18, N^1-(2-(4-(2-(Dinonylamino)ethyl)piperazin-1-yl)ethyl)-N^1,N^2,N^2-trinonylethane-1,2-diamine] — higher, 0.120
- CCCCCCCCCCCCCCN(CCCCCCCCCCCCCC)CCN(CCCCCCCCCCCCCC)CCN1CCN(CCN(CCCCCCCCC)CCCCCCCCC)CC1 [Compound 30, N^1-(2-(4-(2-(Dinonylamino)ethyl)piperazin-1-yl)ethyl)-N^1,N^2,N^2-tritetradecylethane-1,2-diamine] — higher, 0.110
- CCCCCCCCCCCCN(CCCCCCCCCCCC)CCN1CCN(CCN(CCCCCC)CCN(CCCCCC)CCCCCC)CC1 [Compound 17, N^1-(2-(4-(2-(Didodecylamino)ethyl)piperazin-1-yl)ethyl)-N^1,N^2,N^2-trihexylethane-1,2-diamine] — higher, 0.180

Same assay, conditions: Table 1; lipid:DOPE:Chol:PEG-DMG 40:20:38.5:1.5, Luc mRNA; MC3 standard formulation

With CCCCCCCCCCCCCCN(CCCCCCCCCCCCCC)CCN(CCCCCCCCCCCCCC)CCN1CCN(CCN(CCCCCCCCC)CCCCCCCCC)CC1 [Compound 30, N^1-(2-(4-(2-(Dinonylamino)ethyl)piperazin-1-yl)ethyl)-N^1,N^2,N^2-tritetradecylethane-1,2-diamine] the “Size (nm)” value was 95.0 nm.

Same assay, conditions: Table 20-1

Point of comparison: CCCCCCCCCCCCN(CCO)CCN(CCCCCC(=O)OCCCCC)CCCCCC(=O)OCCCCC [Compound 20-4, Dipentyl 6,6′-((2-(dodecyl(2-hydroxyethyl)amino)ethyl)azanediyl)dihexanoate], PDI 0.160. Against it:
- CCCCCCCCCCCCN(CCO)CCN(CCCCCCCCCCCC)CCCCCC(=O)OCCCCCCC [Compound 20-7, Heptyl 6-(dodecyl(2-(dodecyl(2-hydroxyethyl)amino)ethyl)amino)hexanoate] — higher, 0.170
- CCCCCCCCCCCCN(CCCCCCCCCCCC)CCN(CCO)CCCCCCCC(=O)OC(CCCCCCCC)CCCCCCCC [Compound 20-9, Heptadecan-9-yl 8-((2-(didodecylamino)ethyl)(2-hydroxyethyl)amino)octanoate] — lower, 0.130
- CCCCCCCCCCCCN(CCCCCCCCCCCC)CCN(CCO)CCCCCCCCC [Compound 20-17, 2-((2-(didodecylamino)ethyl)(nonyl)amino)ethan-1-ol] — lower, 0.092
- CCCCCCCCCCCCN(CCCCCCCCCCCC)CCN(CCO)CCCCCC(=O)OCCCCC [Compound 20-3, Pentyl 6-((2-(didodecylamino)ethyl)(2-hydroxyethyl)amino)hexanoate] — lower, 0.110
- CCCCCCCCCCCCN(CCO)CCN(CCCCCCCC(=O)OCCCCCCCCC)CCCCCCCC(=O)OCCCCCCCCC [Compound 20-10, Dinonyl 8,8′-((2-(dodecyl(2-hydroxyethyl)amino)ethyl)azanediyl)dioctanoate] — lower, 0.130
- CCCCC/C=C\CCCCCN(CCO)CCN(CCCCCCCCCCCC)CCCCCCCCCCCC [Compound 20-23, (Z)-2-((2-(Didodecylamino)ethyl)(dodec-6-en-1-yl)amino)ethan-1-ol] — lower, 0.080
- CCCCCCCCCCCCN(CCO)CCN(CCCCCCCCCCCC)CCCCCC(=O)OCCCCC [Compound 20-2, Pentyl 6-(dodecyl(2-(dodecyl(2-hydroxyethyl)amino)ethyl)amino)hexanoate] — lower, 0.130
- CCCCCCCCCCCCCCN(CCO)CCN(CCCCCCCCCCCC)CCCCCCCCCCCC [Compound 20-24, 2-((2-(Didodecylamino)ethyl)(tetradecyl)amino)ethan-1-ol] — lower, 0.038
- CCCCCCCOC(=O)CCCCCN(CCO)CCN(CCCCCC(=O)OCCCCCCC)CCCCCC(=O)OCCCCCCC [Compound 20-5, Diheptyl 6,6′-((2-((6-(heptyloxy)-6-oxohexyl)(2 hydroxyethyl)amino)ethyl)azanediyl)dihexanoate] — higher, 0.210

Same assay, conditions: Table 20-1, row marked *: formulated with DOPE

Work on CCCCCCCCCCCCN(CCCCCCCCCCCC)CCN(CCCCCCCCCCCC)CC(=O)O [Compound 20-1, N-(2-(Didodecylamino)ethyl)-N-dodecylglycine] yielded a PDI of 0.078.

Same assay, conditions: formulated with hEPO mRNA

Point of comparison: CCCCCCCCCCCCN(CCCCCCCCCCCC)CCN(CCCCCCCCCCCC)CCN1CCN(CCN(CCCCCCCC)CCCCCCCC)CC1 [Compound 22, N^1-(2-(4-(2-(Dioctylamino)ethyl)piperazin-1-yl)ethyl)-N^1,N^2,N^2-tridodecylethane-1,2-diamine], PDI 0.130. Against it:
- CCCCCCCCCCCCN(CCCCCCCCCCCC)CCN(CCCCCCCCCCCC)CCN1CCN(CCN(CCCCCCCCCCCC)CCCCCCCCCCCC(=O)OC)CC1 [Compound 15, Methyl 12-((2-(4-(2-((2-(didodecylamino)ethyl)(dodecyl)amino)ethyl)piperazin-1-yl)ethyl)(dodecyl)amino)dodecanoate] — lower, 0.120
